# Measurements reported in publication PMC10648937, “Drug distribution and efficacy of the DprE1 inhibitor BTZ-043 in the C3HeB/FeJ mouse tuberculosis model” (Antimicrobial Agents and Chemotherapy, 2023).
# Several values for one entry are separate records, joined by “and”; a condition that tells them apart may be missing. Identical values can stand only once. Like-named read-outs stand apart in the source and are kept apart here.
# Key:
# [1] = test system: Mtb; parameters: method as in PMID 34370580; settings: C3HeB/FeJ mice, 8 weeks (5 of 7 days per week), cited from earlier work
# [2] = test system: Mtb Erdman; assay: Broth microdilution MIC (Alamar Blue endpoint), with and without 4% huSA (serum-shift assay); settings: for shift in MIC in the presence of huSA: physiologic levels (4%) of huSA
# [3] = test system: Mtb Erdman; assay: Semi-quantitative MBC (sqMBC) assay; format: cell-based, Mycobacterium tuberculosis; settings: M. tuberculosis Erdman; for sqMBC: 10 d incubation, 99% (2-log10) CFU reduction of inoculum; for sqMBC + huSA: with 4% huSA
# [4] = test system: non-replicating Mtb in rabbit caseum; parameters: method as in PMID 34370580; settings: similarly reported previously; cited from earlier work
# [5] = test system: intracellular mycobacteria in macrophages; parameters: method as in PMID 19299584; settings: cited from earlier work
# [6] = test system: Mtb Erdman; assay: In vitro kill kinetics under replicating conditions; format: cell-based, Mycobacterium tuberculosis; settings: 8× and 20× MIC, CFU/mL over 14 days
# [7] = test system: Mtb Erdman-infected C3HeB/FeJ mice; assay: Pulmonary histopathology (pathologist scores and LIRA) in C3HeB/FeJ mice; format: in vivo, mouse
# [8] = human; cited from earlier work
# [9] = test system: non-replicating Mtb in rabbit caseum; assay: Explanted rabbit caseum MBC assay; format: cell-based, Mycobacterium tuberculosis; settings: test concentrations up to 512 µM, 7 days
# [10] = Plasma and lesion drug levels by LCM-LC/MS-MS in C3HeB/FeJ mice; settings: 100 mg/kg
# [11] = test system: non-growing streptomycin-dependent Mtb strain 18b; parameters: method as in PMID 20679505; settings: cited from earlier work
# [12] = test system: Mtb Erdman; assay: Efficacy in spleens of Mtb Erdman-infected C3HeB/FeJ mice (CFU, kill rates); format: in vivo, Mycobacterium tuberculosis; settings: for kill rate k[0-28] (SE), spleens: day 0 to 28; for kill rate k[0-56] (SE), spleens: day 0 to 56; for kill rate k[28-56] (SE), spleens: day 28 to 56
# [13] = test system: Mtb Erdman; assay: Efficacy in lungs of Mtb Erdman-infected C3HeB/FeJ mice (CFU, kill rates); format: in vivo, Mycobacterium tuberculosis; settings: for kill rate k[0-28] (SE), lungs, Type I (TI) subset / kill rate k[0-56] (SE), lungs, Type I (TI) subset / kill rate k[28-56] (SE), lungs, Type I (TI) subset: TI lesions; for kill rate k[0-28] (SE), lungs, Type III (TIII) subset / kill rate k[0-56] (SE), lungs, Type III (TIII) subset / kill rate k[28-56] (SE), lungs, Type III (TIII) subset: TIII lesions; for kill rate k[0-28] (SE), lungs: day 0 to 28; for kill rate k[0-56] (SE), lungs: day 0 to 56; for kill rate k[28-56] (SE), lungs: day 28 to 56
# [14] = C3HeB/FeJ, mouse, in vivo, 1 h
# [15] = Mycobacterium tuberculosis, ERDMAN
# [16] = Mycobacterium tuberculosis, ERDMAN, read-out: MIC + huSA
# [17] = 200 mg/kg QD, 8 weeks, group average
# [18] = 200 mg/kg QD, 8 weeks, mice Mx I to Mx L
# [19] = 50 mg/kg QD, 8 weeks of treatment
# [20] = 200 mg/kg QD, 8 weeks of treatment
smiles,measurement,setting,value
O=c1nc(N2CCN(CC3CCCCC3)CC2)sc2c([N+](=O)[O-])cc(C(F)(F)F)cc12 [PBTZ169],average lung CFU reduction compared to untreated controls,[1]; 50 and 100 mg/kg QD,1.5 log10
same,MIC,[2]; [15],≤ 0.002 µg/mL
same,MIC,[2]; [16],0.016 µg/mL
same,shift in MIC in the presence of huSA,[2],8 fold
same,sqMBC,[3],≤ 0.002 µg/mL
same,sqMBC + huSA,[3],0.016 µg/mL
same,activity against non-replicating Mtb in rabbit caseum MBC assay,[4],lacked appreciable activity
CC(=O)NC[C@H]1CN(c2ccc(N3CCOCC3)c(F)c2)C(=O)O1 [linezolid],MIC,[2]; [15],1 µg/mL
same,MIC,[2]; [16],1 µg/mL
same,sqMBC,[3],> 8 µg/mL
COc1c(N2C[C@@H]3CCCN[C@@H]3C2)c(F)cc2c(=O)c(C(=O)O)cn(C3CC3)c12 [moxifloxacin],MIC,[2]; [15],0.06 µg/mL
same,sqMBC,[3],0.125 µg/mL
C[C@H]1COC2(CCN(c3nc(=O)c4cc(C(F)(F)F)cc([N+](=O)[O-])c4s3)CC2)O1 [BTZ-043],deduced MIC against intracellular mycobacteria in macrophages,[5],< 0.01 µg/mL
same,kill kinetics (cidality),[6],cidality
same,"percent lung involvement, Healthy Tissue (LIRA), average",[7]; [17],73.70%
same,"percent lung involvement, Type I - Caseum (LIRA), average",[7]; [17],10% and 10.01%
same,"percent lung involvement, Type I - Rim (LIRA), average",[7]; [17],4.85%
same,"percent lung involvement, Type II (LIRA), average",[7]; [17],0%
same,"percent lung involvement, Type III (LIRA), average",[7]; [17],11% and 11.44%
same,"percent lung involvement, Healthy Tissue (LIRA), individual mice",[7]; [18],90.59% and 66.70% and 47.22% and 90.31%
same,"percent lung involvement, Type I - Caseum (LIRA), individual mice",[7]; [18],2.82% and 6.51% and 30.69% and 0.00%
same,"percent lung involvement, Type I - Rim (LIRA), individual mice",[7]; [18],3.75% and 4.76% and 10.89% and 0.00%
same,"percent lung involvement, Type II (LIRA), individual mice",[7]; [18],0.00%
same,"percent lung involvement, Type III (LIRA), individual mice",[7]; [18],2.83% and 22.03% and 11.21% and 9.69%
same,histology scores by board-certified pathologist,"[7]; 200 mg/kg, 8 weeks of treatment, compared to untreated mice",improved overall histology scores
same,plasma protein binding,[8],99.4%
same,protein binding indicated by serum-shift MIC assay,[2]; 4% huSA,~ 75%
same,MIC,"[2]; M. tuberculosis Erdman, 7H9 media",0.008 µg/mL
same,MIC,[2]; [15],0.008 µg/mL
same,MIC,[2]; [16],0.03 µg/mL
same,activity against non-replicating Mtb in rabbit caseum MBC assay,[9],lacked appreciable activity
same,"drug levels in plasma, lung parenchyma, cellular lesion and cellular-caseum interface relative to serum-shifted MIC","[10]; 2.5 weeks, end of the dosing interval (24 h)",fell below the serum-shifted MIC
same,drug level in cellular-caseum interface over the serum-shifted MIC,"[10]; 5 of 7 days per week for 2.5 weeks, Tmax (1 h)",93 fold
same,activity against non-growing Mtb strain 18b following depletion of streptomycin,[11],limited activity
same,sqMBC,[3],0.016 µg/mL
same,sqMBC + huSA,[3],0.03 µg/mL
same,"kill rate k[0-28] (SE), spleens",[12]; 50 mg/kg QD,0.048 (0.006) log10CFU per day
same,"kill rate k[0-56] (SE), spleens",[12]; 50 mg/kg QD,0.026 (0.004) log10CFU per day
same,"kill rate k[28-56] (SE), spleens",[12]; 50 mg/kg QD,0.004 (0.007) log10CFU per day
same,"kill rate k[0-28] (SE), spleens",[12]; 100 mg/kg QD,0.046 (0.006) log10CFU per day
same,"kill rate k[0-56] (SE), spleens",[12]; 100 mg/kg QD,0.041 (0.003) log10CFU per day
same,"kill rate k[28-56] (SE), spleens",[12]; 100 mg/kg QD,0.036 (0.006) log10CFU per day
same,"kill rate k[0-28] (SE), spleens",[12]; 200 mg/kg QD,0.057 (0.005) log10CFU per day
same,"kill rate k[0-56] (SE), spleens",[12]; 200 mg/kg QD,0.046 (0.003) log10CFU per day
same,"kill rate k[28-56] (SE), spleens",[12]; 200 mg/kg QD,0.034 (0.006) log10CFU per day
same,mice with spleen CFU below the lower limit of detection,"[12]; 200 mg/kg, 8 weeks, limit 1.7 log10 CFU/spleen",4 out of 8
same,effect on spleen bacterial load,"[12]; 4 weeks of treatment, all dose groups, Dunnett's P = 0.003 to 0.0001",statistically significant reductions
same,effect on spleen burdens,"[12]; 8 weeks of treatment, Dunnett's P < 0.0001",statistically significant reductions
same,lung CFU reduction from the start of treatment,[13]; [19],~ 1.04 log10 CFU
same,lung CFU reduction versus untreated,[13]; [19],~ 2.43 log10 CFU
same,"kill rate k[0-28] (SE), lungs, Type I (TI) subset",[13]; 50 mg/kg QD,0.011 (0.010) log10CFU per day
same,"kill rate k[0-56] (SE), lungs, Type I (TI) subset",[13]; 50 mg/kg QD,0.023 (0.008) log10CFU per day
same,"kill rate k[28-56] (SE), lungs, Type I (TI) subset",[13]; 50 mg/kg QD,0.032 (0.015) log10CFU per day
same,"kill rate k[0-28] (SE), lungs, Type III (TIII) subset",[13]; 50 mg/kg QD,0.063 (0.007) log10CFU per day
same,"kill rate k[0-56] (SE), lungs, Type III (TIII) subset",[13]; 50 mg/kg QD,0.039 (0.007) log10CFU per day
same,"kill rate k[28-56] (SE), lungs, Type III (TIII) subset",[13]; 50 mg/kg QD,0.005 (0.010) log10CFU per day
same,"kill rate k[0-28] (SE), lungs",[13]; 50 mg/kg QD,0.022 log10CFU per day and 0.022 (0.018) log10CFU per day
same,"kill rate k[0-56] (SE), lungs",[13]; 50 mg/kg QD,0.019 (0.009) log10CFU per day
same,"kill rate k[28-56] (SE), lungs",[13]; 50 mg/kg QD,0.015 log10CFU per day and 0.015 (0.021) log10CFU per day
same,"kill rate k[0-28] (SE), lungs, Type I (TI) subset",[13]; 100 mg/kg QD,0.011 (0.011) log10CFU per day
same,"kill rate k[0-56] (SE), lungs, Type I (TI) subset",[13]; 100 mg/kg QD,0.047 (0.011) log10CFU per day
same,"kill rate k[28-56] (SE), lungs, Type I (TI) subset",[13]; 100 mg/kg QD,0.078 (0.017) log10CFU per day
same,"kill rate k[0-28] (SE), lungs, Type III (TIII) subset",[13]; 100 mg/kg QD,0.041 (0.007) log10CFU per day
same,"kill rate k[0-56] (SE), lungs, Type III (TIII) subset",[13]; 100 mg/kg QD,0.022 (0.005) log10CFU per day
same,"kill rate k[28-56] (SE), lungs, Type III (TIII) subset",[13]; 100 mg/kg QD,0.003 (0.015) log10CFU per day
same,"kill rate k[0-28] (SE), lungs",[13]; 100 mg/kg QD,0.006 log10CFU per day and 0.006 (0.013) log10CFU per day
same,"kill rate k[0-56] (SE), lungs",[13]; 100 mg/kg QD,0.031 (0.007) log10CFU per day
same,"kill rate k[28-56] (SE), lungs",[13]; 100 mg/kg QD,0.056 log10CFU per day and 0.056 (0.015) log10CFU per day
same,lung CFU reduction from the start of treatment,[13]; [20],~ 2.59 log10 CFU
same,lung CFU reduction versus untreated,[13]; [20],~ 3.98 log10 CFU
same,"kill rate k[0-28] (SE), lungs, Type I (TI) subset",[13]; 200 mg/kg QD,0.023 (0.011) log10CFU per day
same,"kill rate k[0-56] (SE), lungs, Type I (TI) subset",[13]; 200 mg/kg QD,0.042 (0.009) log10CFU per day
same,"kill rate k[28-56] (SE), lungs, Type I (TI) subset",[13]; 200 mg/kg QD,0.062 (0.014) log10CFU per day
same,"kill rate k[0-28] (SE), lungs, Type III (TIII) subset",[13]; 200 mg/kg QD,0.019 (0.009) log10CFU per day
same,"kill rate k[0-56] (SE), lungs, Type III (TIII) subset",[13]; 200 mg/kg QD,0.049 (0.005) log10CFU per day
same,"kill rate k[28-56] (SE), lungs, Type III (TIII) subset",[13]; 200 mg/kg QD,0.079 (0.015) log10CFU per day
same,"kill rate k[0-28] (SE), lungs",[13]; 200 mg/kg QD,0.005 log10CFU per day and 0.005 (0.010) log10CFU per day
same,"kill rate k[0-56] (SE), lungs",[13]; 200 mg/kg QD,0.046 (0.008) log10CFU per day
same,"kill rate k[28-56] (SE), lungs",[13]; 200 mg/kg QD,0.087 log10CFU per day and 0.087 (0.013) log10CFU per day
same,effect on lung bacterial load,"[13]; 4 weeks of treatment, all dose groups (50, 100, 200 mg/kg), Dunnett's P = 0.002 to 0.03",statistically significant reductions
same,effect on lung bacterial load,"[13]; 8 weeks of treatment, all dose groups, Dunnett's P < 0.0001",statistically significant reduction
same,drug level in cellular lesion over the serum-shifted MIC,[14],121 fold
same,drug level in lung parenchyma over the serum-shifted MIC,[14],228 fold
same,drug level in plasma over the serum-shifted MIC,[14],237 fold
O=C1CCc2c(OC[C@]3(O)CCN(c4c(F)cc(Cl)cc4F)C[C@H]3O)ccc(F)c2N1 [OPC-167832],average lung CFU reduction compared to untreated controls,[1]; 5 and 20 mg/kg QD,3 log10
same,MIC,[2]; [15],0.0005 µg/mL
same,MIC,[2]; [16],0.008 µg/mL
same,shift in MIC in the presence of huSA,[2],16 fold
same,sqMBC,[3],0.001 µg/mL
same,sqMBC + huSA,[3],0.016 µg/mL
same,activity against non-replicating Mtb in rabbit caseum MBC assay,[4],lacked appreciable activity
COc1ncnc(Cn2cc(C(=O)NCCO)c3ncc(C)cc32)c1C [TBA-7371],average lung CFU reduction compared to untreated controls,[1]; 100 and 200 mg/kg BID,1.5 log10
same,MIC,[2]; [15],0.5 µg/mL
same,MIC,[2]; [16],1 µg/mL
same,sqMBC,[3],1 µg/mL
same,sqMBC + huSA,[3],1 µg/mL
same,activity against non-replicating Mtb in rabbit caseum MBC assay,[4],lacked appreciable activity
